These results are taken from PMC10254170, “Diastereoselective Synthesis of the Borylated D-Galactose Monosaccharide 3-Boronic-3-Deoxy-D-Galactose and Biological Evaluation in Glycosidase Inhibition and in Cancer for Boron Neutron Capture Therapy (BNCT)” (Molecules, 2023).

In one assay the test system is A431 (skin carcinoma). As to the kind of experiment: Cancer screening (MTT growth inhibition), A431. Type of assay: cell-based. The following applies: 72 h; for inhibition at 25 µM: A-431, 25 µM of drug, read-out: Percentage (%) cell growth inhibition; for inhibition at 25 µM / Percentage (%) cell growth inhibition: n = 3, mean ± SEM; for Percentage (%) cell growth inhibition: 25 µM of drug. As for the experimental part:
(§1) All test agents were prepared as stock solutions (20 mM) in dimethyl sulfoxide (DMSO) and stored at −20 °C. Cell lines used in the study included: HT29 (colorectal carcinoma), U87 and SJ-G2 (glioblastoma), MCF-7 (breast carcinoma), A2780 (ovarian carcinoma), H460 (lung carcinoma), A431 (skin carcinoma), Du145 (prostate carcinoma), BE2-C (neuroblastoma), MiaPaCa-2 (pancreatic carcinoma), SMA560 (spontaneous murine astrocytoma), and ADDP (Cis Res Ovarian), together with one non-tumor-derived normal breast cell line (MCF10A). All cell lines were incubated in a humidified atmosphere with 5 % CO2 at 37 °C. The cancer cell lines were maintained in Dulbecco’s modified Eagle’s medium (DMEM; Sigma, Australia) supplemented with fetal bovine serum (10%), sodium pyruvate (10 mM), penicillin (100 IUmL^−1), streptomycin (100 µg mL^−1), and L-glutamine (2 mM).
(§2) Growth inhibition was determined by plating cells in duplicate in medium (100 µL) at a density of 2500–4000 cells per well in 96-well plates. On day 0 (24 h after plating), when the cells are in logarithmic growth, medium (100 µL) with or without the test agent was added to each well. After 72 h of drug exposure, growth inhibitory effects were evaluated using the (3-(4,5-dimethyltiazol-2-yl)-2,5-diphenyltetrazolium bromide) (MTT) assay and absorbance read at 540 nm. The percentage growth inhibition was calculated at a fixed concentration of 25 µM, based on the difference between the optical density values on day 0 and those at the end of drug exposure. Each data point is the mean ± the standard error of the mean (SEM) calculated from three replicates, which were performed on separate occasions and in separate cell line passages.

In the next assay the target is T1, porcine kidney trehalase (Sus scrofa, UniProt I3LIR5).
T1 construct: purchased Sigma-Aldrich Co; host or cells: porcine kidney
T1 sequence (I3LIR5 24-583): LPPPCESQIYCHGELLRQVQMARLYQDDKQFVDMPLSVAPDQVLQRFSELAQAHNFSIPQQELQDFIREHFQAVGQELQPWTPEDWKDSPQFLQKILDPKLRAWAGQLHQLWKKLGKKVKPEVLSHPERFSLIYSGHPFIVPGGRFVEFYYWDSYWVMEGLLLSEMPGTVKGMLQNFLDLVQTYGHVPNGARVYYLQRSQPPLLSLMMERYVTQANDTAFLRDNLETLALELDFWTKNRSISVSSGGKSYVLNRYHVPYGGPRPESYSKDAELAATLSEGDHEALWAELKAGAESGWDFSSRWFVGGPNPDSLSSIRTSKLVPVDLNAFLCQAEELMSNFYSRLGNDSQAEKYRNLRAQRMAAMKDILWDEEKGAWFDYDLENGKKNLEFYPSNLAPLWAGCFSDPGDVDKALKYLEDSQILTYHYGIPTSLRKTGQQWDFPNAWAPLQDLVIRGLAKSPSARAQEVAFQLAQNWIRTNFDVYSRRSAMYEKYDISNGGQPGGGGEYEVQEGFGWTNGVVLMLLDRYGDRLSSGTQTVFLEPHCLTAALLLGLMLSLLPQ
As to the kind of experiment: Glycosidase inhibition, porcine kidney trehalase. Format: biochemical. An excerpt:
(§3) Glycosidase modulation studies need to explore selectivity as well as potency. Our drugs and controls are therefore screened against a panel of glycosidases in methanol (Table 1) to identify the glycosidase-related disease area(s), selectivity profile, and potency of biological action for each drug. The presence of organic boron covalently bonded to the drug structure also grants a reduced toxicity profile. Following the glycosidase inhibition range recommendations, an IC50 value >250 μm denotes weak inhibition, 100–249 μm denotes moderate inhibition, 10–99 μm good inhibition, 0.1–9 μm potent inhibition, and <0.1 μm very potent inhibition. […] Our boronated D-galactose 7 represents a novel lead in glycosidase inhibition.
(§4) The glycosidases screened are the following: rice α-glucosidase, yeast α-glucosidase, Bacillus α-glucosidase, rat intestinal maltase α-glucosidase, almond β-glucosidase, bovine liver β-glucosidase, coffee beans α-galactosidase, bovine liver β-galactosidase, Jack bean α-mannosidase, snail β-mannosidase, Penicillium decumbens α-L-rhamnosidase, bovine kidney α-L-fucosidase, Eschierichia coli β-glucuronidase, bovine liver β-glucuronidase, porcine kidney trehalase, Aspergillus niger amyloglucosidase, and bovine kidney N-acetyl-β-glucosaminidase. The disease areas for each glycosidase are summarized in [1].
(§5) The enzymes α-glucosidase (from yeast), β-glucosidases (from almond and bovine liver), α-galactosidase (from coffee beans), β-galactosidase (from bovine liver), α-mannosidase (from Jack bean), β-mannosidase (from snail), α-L-rhamnosidase (from Penicillium decumbens), α-L-fucosidase (from bovine kidney), trehalase (from porcine kidney), β-glucuronidases (from E. coli and bovine liver), amyloglucosidase (from A. niger), para-nitrophenyl glycosides, and various disaccharides were purchased from Sigma-Aldrich Co.
(§6) Brush border membranes were prepared from the rat small intestine according to the method of Kessler et al. and were assayed at pH 6.8 for rat intestinal maltase using maltose. For rat intestinal maltase, porcine kidney trehalase, and A. niger amyloglucosidase activities, the reaction mixture contained 25 mM maltose and the appropriate amount of enzyme, and the incubations were performed for 10–30 min at 37 °C. The reaction was stopped by heating at 100 °C for 3 min. After centrifugation (600 g; 10 min), the resulting reaction mixture was added to the Glucose CII-test Wako (Wako Pure Chemical Ind., Osaka, Japan). The absorbance at 505 nm was measured to determine the amount of the released D-glucose. Other glycosidase activities were determined using an appropriate para-nitrophenyl glycoside as substrate at the optimum pH of each enzyme. The reaction mixture contained 2 mM of the substrate and the appropriate amount of enzyme. The reaction was stopped by the addition of 400 mM Na2CO3. The released para-nitrophenol was measured spectrometrically at 400 nm. All reactions run in methanol.

For assay [1], the system named is bovine liver β-glucosidase. As to the kind of experiment: Glycosidase inhibition, bovine liver β-glucosidase. Format: biochemical. The following applies: for inhibition %: in methanol.
Text: as §3, §4, §5, §6

In assay [2] the target is T2, Aspergillus niger amyloglucosidase (Aspergillus niger, UniProt P69328).
T2 construct: purchased Sigma-Aldrich Co
T2 sequence (P69328 25-640): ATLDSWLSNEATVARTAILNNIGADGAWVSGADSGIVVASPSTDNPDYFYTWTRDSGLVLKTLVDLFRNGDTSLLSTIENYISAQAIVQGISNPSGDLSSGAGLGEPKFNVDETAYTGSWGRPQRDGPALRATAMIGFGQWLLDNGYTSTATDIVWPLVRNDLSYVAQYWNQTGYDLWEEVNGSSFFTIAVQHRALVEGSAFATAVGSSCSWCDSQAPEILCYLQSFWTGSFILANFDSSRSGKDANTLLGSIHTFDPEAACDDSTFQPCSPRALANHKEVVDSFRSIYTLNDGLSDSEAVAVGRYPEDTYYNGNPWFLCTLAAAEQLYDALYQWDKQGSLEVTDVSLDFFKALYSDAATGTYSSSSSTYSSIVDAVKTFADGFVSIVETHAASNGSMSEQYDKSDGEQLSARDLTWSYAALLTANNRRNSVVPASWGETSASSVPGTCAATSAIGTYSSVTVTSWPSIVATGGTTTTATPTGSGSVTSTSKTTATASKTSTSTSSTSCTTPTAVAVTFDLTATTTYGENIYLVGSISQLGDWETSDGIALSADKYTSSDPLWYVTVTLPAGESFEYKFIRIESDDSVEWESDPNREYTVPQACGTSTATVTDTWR
The assay is described as follows: Glycosidase inhibition, A. niger amyloglucosidase. Type of assay: biochemical.
Text: as §3, §4, §5, §6

Assay [3] concerns A2780 (ovarian carcinoma). As to the kind of experiment: Cancer screening (MTT growth inhibition), A2780. Format: cell-based. To be noted: 72 h; for inhibition at 25 µM: A2780, 25 µM of drug, read-out: Percentage (%) cell growth inhibition; for inhibition at 25 µM / Percentage (%) cell growth inhibition: n = 3, mean ± SEM; for Percentage (%) cell growth inhibition: 25 µM of drug. As for the experimental part: as §1, §2

The mark [4] stands for this setting: at 100 μM, in methanol, read-out: inhibition %.
The mark [5] stands for this setting: at 100 μM, read-out: NI: No inhibition.
The mark [6] stands for this setting: at 1000 μM, in methanol, read-out: inhibition %.
Where [7] appears, read: at 1000 μM, read-out: NI: No inhibition.

Where two headings read alike, the source gives them in different places.

In the case of `N[C@@H](Cc1ccc(B(O)O)cc1)C(=O)O` [BPA, 4-borono-L-phenylalanine], the inhibition at 25 µM was 4 ± 6% in the assay on A431 (skin carcinoma) (Homo sapiens) and 4 ± 1% in assay [3] (Homo sapiens). Moreover, the inhibition at 100 µM was 0% at porcine kidney trehalase (setting [4]), under 50% at porcine kidney trehalase (setting [5]), 0% in assay [2] (setting [4]) and under 50% in assay [2] (setting [5]). Moreover, the “NI: No inhibition” value in assay [1] (at 100 μM) is “NI (No inhibition (less than 50% inhibition at 100 μM))”. The compound further registered an inhibition % in assay [1] (at 100 μM) of 0%.
On to `CC1(C)OCC(C2OC3OC(C)(C)OC3C2[B-]23OCC[NH+]2CCO3)O1` [Compound 6, 3-Deoxy-3-Boronodiethanolamine-1,2:5,6-Di-O-isopropylidene-α-D-galactofuranose], for which the inhibition at 25 µM is 0% in the assay on A431 (skin carcinoma) (Homo sapiens) and 10 ± 5% in assay [3] (Homo sapiens). The inhibition at 100 µM on porcine kidney trehalase (setting [4]) was 0%; on porcine kidney trehalase (setting [5]) it was under 50%; in assay [2] (setting [4]), 0%; in assay [2] (setting [5]), under 50%. Also, the “NI: No inhibition” value in assay [1] (at 100 μM) is “NI (No inhibition (less than 50% inhibition at 100 μM))”. Also, the inhibition % in assay [1] (at 100 μM) is recorded as 12.2%.
As for `OCC1OC(O)C(O)C(B(O)O)C1O` [Compound 7, 3-Boronic-3-Deoxy-D-galactose], the inhibition at 25 µM in the assay on A431 (skin carcinoma) (Homo sapiens) turned out to be 3%; in assay [3] (Homo sapiens) it was 8 ± 3%. Moreover, the GI50 is over 50 µM in the assay on A431 (skin carcinoma) (Homo sapiens, A-431, dose response, read-out: GI50 = Concentration that inhibits cell growth by 50%) and over 50 µM in assay [3] (Homo sapiens, A2780, dose response, read-out: GI50 = Concentration that inhibits cell growth by 50%). In addition, the inhibition at 1000 µM on porcine kidney trehalase (setting [6]) was 0.5%; on porcine kidney trehalase (setting [7]), under 50%; in assay [2] (setting [6]), 1.5%; in assay [2] (setting [7]) it was under 50%. Besides, the “NI: No inhibition” value in assay [1] (at 1000 μM) is recorded as “NI (No inhibition (less than 50% inhibition at 1000 μM))”. Also, the inhibition % in assay [1] (at 1000 μM) was determined as 12.6%.
As to `N[C@@H](Cc1ccc(B(O)O)cc1)C(=O)O` [^10B-BPA], the “Percentage (%) cell growth inhibition” value was found to be 4 ± 4% in the assay with A431 (skin carcinoma) and 8 ± 4% in assay [3]. Further, the “NI: No inhibition” value (at porcine kidney trehalase (at 100 μM); in assay [1] (at 100 μM)) was “NI (No inhibition (less than 50% inhibition at 100 μM))” in each case. The inhibition % against porcine kidney trehalase (at 100 μM, in methanol) is recorded as 0%; in assay [1] (at 100 μM) it was 14.2%; in assay [2] (at 100 μM, in methanol) it was 0%.
Borocaptate sodium [BSH]: the “Percentage (%) cell growth inhibition” value with A431 (skin carcinoma) was under 0%; in assay [3], 2 ± 5%. The “NI: No inhibition” value (at porcine kidney trehalase (at 1000 μM); in assay [1] (at 1000 μM)) was “NI (No inhibition (less than 50% inhibition at 1000 μM))” throughout. The inhibition % at porcine kidney trehalase (at 1000 μM, in methanol) worked out at 4.2%; in assay [1] (at 1000 μM), 15%; in assay [2] (at 1000 μM, in methanol), 0%.
